Results taken from ChEMBL document CHEMBL1145781, “Synthesis and structure-activity relationships of 5-amino-6-fluoro-1-[(1R,2S)-2-fluorocyclopropan-1-yl]-8-methylquinolonecarboxylic acid antibacterials having fluorinated 7-[(3R)-3-(1-aminocyclopropan-1-yl)pyrrolidin-1-yl] substituents” (J Med Chem, 2003).
Converted amounts (≈) assume the structure as drawn. *1 amine or outer side, *2 acyl side, *3 side chain or, on linkers, in order; H or OH if unused. Where a SMILES comes first, the peptide text is derived from it. Bridges are numbered along the chain shown (N, C = ends). [ ]: non-standard residue; d: D form. The star is where a group is joined. X1 = O=C1C[C@@H](C(=O)[*:2])N([*:1])C[C@H]1CS[C@@H]1CN2CCC1CC2; NMePhe(4-NMe2) = CN[C@@H](Cc1ccc(N(C)C)cc1)C(=O)O; Picolinoyl(3-OH) = O=C(c1ncccc1O)*; Phg = N[C@H](C(=O)O)c1ccccc1; dAbu = CC[C@@H](N)C(=O)O

What was measured:
Type in all cases: functional
[1] = tested on: Staphylococcus aureus; experiment: Antibacterial activity was determined against Staphylococcus aureus FDA 209-P strain after incubation at 37 degrees C for 18 h
[2] = tested on: Pseudomonas aeruginosa; experiment: Antibacterial activity was determined against Pseudomonas aeruginosa PAO1 strain after incubation at 37 degrees C for 18 h
[3] = tested on: Klebsiella pneumoniae; experiment: Antibacterial activity was determined against Klebsiella pneumoniae type II strain after incubation at 37 degrees C for 18 h
[4] = tested on: Staphylococcus epidermidis; experiment: Antibacterial activity was determined against Staphylococcus epidermis 56500 strain after incubation at 37 degrees C for 18 h
[5] = tested on: Streptococcus pyogenes; experiment: Antibacterial activity was determined against Streptococcus pyogenes G-36 strain after incubation at 37 degrees C for 18 h
[6] = tested on: Streptococcus pneumoniae; experiment: Antibacterial activity was determined against Streptococcus pneumoniae J-24 strain after incubation at 37 degrees C for 18 h
[7] = tested on: Enterococcus faecalis; experiment: Antibacterial activity was determined against Enterococcus faecalis ATCC 19433 strain after incubation at 37 degrees C for 18 h; settings: ATCC 19433, 18 h
[8] = tested on: Streptococcus mitis; experiment: Antibacterial activity was determined against Streptococcus mitis IID685 strain after incubation at 37 degrees C for 18 h
[9] = tested on: Escherichia coli; experiment: Antibacterial activity was determined against Escherichia coli NIHJ strain after incubation at 37 degrees C for 18 h
[10] = tested on: Enterococcus sp.; experiment: Antibacterial activity was determined against clinically isolated vancomycin-B resistant enterococci (VRE) strains (10 strains)
[11] = tested on: Enterococcus sp.; experiment: Antibacterial activity was determined against clinically isolated vancomycin-A resistant enterococci (VRE) strains (33 strains)
[12] = tested on: Staphylococcus aureus; experiment: Antibacterial activity was determined against clinically isolated Levofloxacin-methicillin resistant Staphylococcus aureus (LVFX-r MRSA) strains (74 strains)
[13] = tested on: Streptococcus pneumoniae; experiment: Antibacterial activity was determined against clinically isolated penicillin resistant Streptococcus pneumoniae (PRSP) strains (50 strains)

Compound: COc1c(N2C[C@@H]3CCCN[C@@H]3C2)c(F)cc2c(=O)c(C(=O)O)cn(C3CC3)c12 [MOXIFLOXACIN]
- MIC [1]: 0.013 mg/L (≈ 0.0324 µM)
- MIC [2]: 0.2 mg/L (≈ 0.498 µM)
- MIC [3]: 0.025 mg/L (≈ 0.0623 µM)
- MIC [4]: 0.1 mg/L (≈ 0.249 µM)
- MIC [5]: 0.2 mg/L (≈ 0.498 µM)
- MIC [6]: 0.025 mg/L (≈ 0.0623 µM)
- MIC [7]: 0.2 mg/L (≈ 0.498 µM)
- MIC [8]: 0.1 mg/L (≈ 0.249 µM)
- MIC [9]: ≤ 0.003 mg/L

Compound: CC(=O)NCC1CN(c2ccc(N3CCOCC3)c(F)c2)C(=O)O1 (single isomer, unassigned) [LINEZOLID]
- MIC50 [10]: 2 mg/L (≈ 5.93 µM)
- MIC90 [10]: 2 mg/L (≈ 5.93 µM)
- MIC50 [11]: 2 mg/L (≈ 5.93 µM)
- MIC90 [11]: 2 mg/L (≈ 5.93 µM)
- MIC50 [12]: 2 mg/L (≈ 5.93 µM)
- MIC90 [12]: 2 mg/L (≈ 5.93 µM)
- MIC50 [13]: 0.5 mg/L (≈ 1.48 µM)
- MIC90 [13]: 0.5 mg/L (≈ 1.48 µM)

Compound: NCC[C@H](O)C(=O)N[C@@H]1C[C@H](N)[C@@H](O[C@H]2O[C@H](CN)CC[C@H]2N)[C@H](O)[C@H]1O[C@H]1O[C@H](CO)[C@@H](O)[C@H](N)[C@H]1O [ARBEKACIN]
- MIC50 [10]: 32 mg/L (≈ 57.9 µM)
- MIC90 [10]: > 128 mg/L
- MIC50 [11]: 16 mg/L (≈ 29 µM)
- MIC90 [11]: 64 mg/L (≈ 116 µM)
- MIC50 [12]: 8 mg/L (≈ 14.5 µM)
- MIC90 [12]: 32 mg/L (≈ 57.9 µM)
- MIC50 [13]: 16 mg/L (≈ 29 µM)
- MIC90 [13]: 32 mg/L (≈ 57.9 µM)

Compound: N[C@@H]1[C@H]2CN(c3nc4c(cc3F)c(=O)c(C(=O)O)cn4-c3ccc(F)cc3F)C[C@@H]12 [TROVAFLOXACIN]
- MIC [1]: 0.013 mg/L (≈ 0.0312 µM)
- MIC [2]: 0.2 mg/L (≈ 0.48 µM)
- MIC [3]: 0.025 mg/L (≈ 0.06 µM)
- MIC [4]: 0.05 mg/L (≈ 0.12 µM)
- MIC [5]: 0.2 mg/L (≈ 0.48 µM)
- MIC [6]: 0.05 mg/L (≈ 0.12 µM)
- MIC [7]: 0.2 mg/L (≈ 0.48 µM)
- MIC [8]: 0.1 mg/L (≈ 0.24 µM)
- MIC [9]: ≤ 0.003 mg/L

Compound: O=C(O)c1cn(C2CC2)c2cc(N3CCNCC3)c(F)cc2c1=O [CIPROFLOXACIN]
- MIC [1]: 0.05 mg/L (≈ 0.151 µM)
- MIC [2]: 0.05 mg/L (≈ 0.151 µM)
- MIC [3]: 0.025 mg/L (≈ 0.0754 µM)
- MIC [4]: 0.2 mg/L (≈ 0.604 µM)
- MIC [5]: 1.56 mg/L (≈ 4.71 µM)
- MIC [6]: 0.39 mg/L (≈ 1.18 µM)
- MIC [7]: 0.78 mg/L (≈ 2.35 µM)
- MIC [8]: 0.78 mg/L (≈ 2.35 µM)
- MIC [9]: ≤ 0.003 mg/L

Compound: CN[C@H](CC(C)C)C(=O)N[C@H]1C(=O)N[C@@H](CC(N)=O)C(=O)N[C@H]2C(=O)N[C@H]3C(=O)N[C@H](C(=O)N[C@H](C(=O)O)c4cc(O)cc(O)c4-c4cc3ccc4O)[C@H](O)c3ccc(c(Cl)c3)Oc3cc2cc(c3O[C@@H]2O[C@H](CO)[C@@H](O)[C@H](O)[C@H]2O[C@H]2C[C@](C)(N)[C@H](O)[C@H](C)O2)Oc2ccc(cc2Cl)[C@H]1O [VANCOMYCIN]
- MIC50 [10]: > 128 mg/L
- MIC90 [10]: > 128 mg/L
- MIC50 [11]: > 128 mg/L
- MIC90 [11]: > 128 mg/L
- MIC50 [12]: 1 mg/L (≈ 0.69 µM)
- MIC90 [12]: 2 mg/L (≈ 1.38 µM)
- MIC50 [13]: 0.5 mg/L (≈ 0.345 µM)
- MIC90 [13]: 0.5 mg/L (≈ 0.345 µM)

Compound: CC(=O)N[C@@H]1[C@H](Oc2c3cc4cc2Oc2ccc(cc2Cl)[C@@H](O[C@@H]2O[C@@H](CO)[C@@H](O)[C@H](O)[C@@H]2NC(C)=O)[C@@H]2NC(=O)[C@H](NC(=O)[C@@H]4NC(=O)[C@H]4NC(=O)[C@@H](Cc5ccc(c(Cl)c5)O3)NC(=O)[C@H](N)c3ccc(O)c(c3)Oc3cc(O)cc4c3)c3ccc(O)c(c3)-c3c(O[C@H]4O[C@H](CO)[C@@H](O)[C@@H](O)[C@@H]4O)cc(O)cc3[C@@H](C(=O)O)NC2=O)O[C@@H](CO)[C@@H](O)[C@@H]1O
- MIC50 [10]: 1 mg/L (≈ 0.566 µM)
- MIC90 [10]: 2 mg/L (≈ 1.13 µM)
- MIC50 [11]: 32 mg/L (≈ 18.1 µM)
- MIC90 [11]: 64 mg/L (≈ 36.2 µM)
- MIC50 [12]: 0.5 mg/L (≈ 0.283 µM)
- MIC90 [12]: 1 mg/L (≈ 0.566 µM)
- MIC50 [13]: 0.25 mg/L (≈ 0.141 µM)
- MIC90 [13]: 0.5 mg/L (≈ 0.283 µM)

Compound: CCN(CC)CCS(=O)(=O)[C@@H]1CCN2C(=O)c3coc(n3)CC(=O)C[C@H](O)/C=C(C)/C=C/CNC(=O)/C=C/[C@@H](C)[C@@H](C(C)C)OC(=O)[C@@H]12.CC[C@H]1NC(=O)[C@@H](NC(=O)c2ncccc2O)[C@@H](C)OC(=O)[C@H](c2ccccc2)NC(=O)[C@@H]2CC(=O)[C@H](CS[C@@H]3CN4CCC3CC4)CN2C(=O)[C@H](Cc2ccc(N(C)C)cc2)N(C)C(=O)[C@@H]2CCCN2C1=O [QUINUPRISTIN/DALFOPRISTIN] ({Picolinoyl(3-OH)}-T[dAbu]P[NMePhe(4-NMe2)][X1][Phg]; ester 1-C)
- MIC50 [10]: 0.5 mg/L
- MIC90 [10]: 8 mg/L
- MIC50 [11]: 0.5 mg/L
- MIC90 [11]: 8 mg/L
- MIC50 [12]: 0.5 mg/L
- MIC90 [12]: 0.5 mg/L
- MIC50 [13]: 1 mg/L
- MIC90 [13]: 1 mg/L
